Source: patent US9561230B2, “Aryl-substituted tricyclic sulfonamides as methionyl aminopeptidase 2 modulators” (Zafgen, Inc., priority 2011, dated 2017)

target: T1, recombinant human MetAP2 (Homo sapiens, UniProt P50579); assay: Inhibition of recombinant human MetAP2 activity (MAS substrate, amino acid oxidase/Amplex red fluorescence); format: biochemical; details: manganese enzyme, 0.75 mM MAS substrate, 30 minutes at 25° C., pH 7.5, 1% DMSO; read-out: Activity (IC50 class, MetAP2 inhibition)
T1 construct: made in house; host or cells: Sf9 insect cells
T1 sequence (P50579 whole entry): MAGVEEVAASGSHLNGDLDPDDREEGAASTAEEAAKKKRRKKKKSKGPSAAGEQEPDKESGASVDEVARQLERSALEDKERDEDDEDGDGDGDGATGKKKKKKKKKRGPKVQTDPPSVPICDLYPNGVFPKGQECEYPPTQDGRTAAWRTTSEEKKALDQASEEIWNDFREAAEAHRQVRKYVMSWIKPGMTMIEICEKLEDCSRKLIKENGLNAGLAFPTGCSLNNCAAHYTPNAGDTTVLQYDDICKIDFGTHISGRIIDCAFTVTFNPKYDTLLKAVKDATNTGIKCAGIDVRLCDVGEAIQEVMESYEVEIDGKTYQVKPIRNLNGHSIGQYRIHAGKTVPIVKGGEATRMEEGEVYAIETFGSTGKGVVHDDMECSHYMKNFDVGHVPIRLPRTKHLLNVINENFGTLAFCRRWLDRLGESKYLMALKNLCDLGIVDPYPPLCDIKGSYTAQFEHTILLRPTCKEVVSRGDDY
Procedure: Compounds are tested for their capacity to inhibit recombinant human MetAP2 activity using the following assay.
Human recombinant MetAP2 expressed in Sf9 cells followed by affinity purification and EDTA treatment to remove endogenous active site cation was dialysed against MnCl2 to produce the manganese enzyme used in the assay. The assay was carried out for 30 minutes at 25° C. in 50 mM HEPES buffer containing 100 mM NaCl, pH 7.5 the presence of 0.75 mM Methionine-Alanine-Serine (MAS) substrate and 50 μg/ml amino acid oxidase using a dilution of purified MetAP2 giving>3-fold signal:noise. Cleavage of the substrate by MetAP2 and oxidation of free methionine by amino acid oxidase was detected and quantified using fluorescence generated by Amplex red (10-acetyl-3,7-dihydroxyphenoxazine) in combination with horseradish peroxidase which detects H2O2 released during the oxidation step. The fluorescent signal was detected using a multiwell fluorimeter. Compounds were diluted in DMSO prior to addition to assay buffer, the final DMSO concentration in the assay being 1%.
The IC50 is defined as the concentration at which a given compound achieves 50% inhibition of control. IC50 values are calculated using the XLfit software package (version 2.0.5).

SMILES | IC50
O=C(O)c1c(NS(=O)(=O)c2ccccc2)ccc2c1cc1n2CCC1 [7-Benzenesulfonylamino-2,3-dihydro-1H-pyrrolo[1,2-a]indole-8-carboxylic acid] | > 500 nM
CCN(CC)C/C=C\c1cc(F)ccc1S(=O)(=O)Nc1ccc2c(c1C(=O)O)OC[C@H]1CCN21 [(R)-6-[2-((Z)-3-Diethylaminoprop-1-enyl)-4-fluorobenzenesulfonylamino]-1,2,2a,3-tetrahydro-4-oxa-8b-azacyclobuta[a]naphthalene-5-carboxylic acid] | > 500 nM
CCN(CC)C/C=C\c1cc(F)ccc1S(=O)(=O)Nc1ccc2c(c1C(=O)O)OC[C@H]1CCCN21 [(R)-7-[2-((Z)-3-Diethylaminoprop-1-enyl)-4-fluorobenzenesulfonyl-amino]-2,3,3a,4-tetrahydro-1H-benzo[b]pyrrolo[1,2-d][1,4]oxazine-6-carboxylic acid] | 50 to 500 nM
CCN(CC)C/C=C\c1cc(F)ccc1S(=O)(=O)Nc1ccc2c(nc3n2CCC3)c1C(=O)O [6-[2-((Z)-3-Diethylaminoprop-1-enyl)-4-fluorobenzenesulfonylamino]-2,3-dihydro-1H-benzo[d]pyrrolo[1,2-a]imidazole-5-carboxylic acid] | > 500 nM
CCN(CC)C/C=C\c1cc(F)ccc1S(=O)(=O)Nc1ccc2c(c1C(=O)O)CC1CCCN21 (centres unmarked) [7-[2-((Z)-3-Diethylaminoprop-1-enyl)-4-fluorobenzenesulfonylamino]-2,3,9,9a-tetrahydro-1H-pyrrolo[1,2-a]indole-8-carboxylic acid] | 50 to 500 nM

Second part, the compound after the results:

IC50 | SMILES
50 to 500 nM | CCN(CC)C/C=C\c1cc(F)ccc1S(=O)(=O)Nc1ccc2c(c1C(=O)O)OC[C@@H]1CCCN21 [(S)-7-[2-((Z)-3-Diethylaminoprop-1-enyl)-4-fluorobenzenesulfonyl-amino]-2,3,3a,4-tetrahydro-1H-benzo[b]pyrrolo[1,2-d][1,4]oxazine-6-carboxylic acid]
50 to 500 nM | CCN(CC)C/C=C\c1cc(F)ccc1S(=O)(=O)Nc1ccc2c(c1C(=O)O)CCC1CCCN21 (centres unmarked) [7-[2-((Z)-3-Diethylaminoprop-1-enyl)-4-fluorobenzenesulfonylamino]-1,2,3,3a,4,5-hexahydropyrrolo[1,2-a]quinoline-6-carboxylic acid]
< 50 nM | CCN(CC)C/C=C\c1cc(F)ccc1S(=O)(=O)Nc1ccc2c(cc3n2CCC3)c1C(=O)O [7-[2-((Z)-3-Diethylaminoprop-1-enyl)-4-fluorobenzenesulfonylamino]-2,3-dihydro-1H-pyrrolo[1,2-a]indole-8-carboxylic acid]
